Source: patent US20050038047A1, “Azaquinazoline derivatives” (priority 2003, published 2005)

Molecular target: T1, rat mGluR1a receptor (Rattus norvegicus, UniProt P23385)
T1 construct: expressed in transfected cells; host or cells: Chinese Hamster Ovary cells (CHO-1a), stably transfected
Experiment: mGluR1 assay: antagonism of glutamate-evoked calcium internalisation in CHO-1a cells (FLIPr)
Assay type: cell-based
Details: CHO cells stably transfected with rat mGluR1a; 40 μM glutamate challenge; IC50 values converted to modified Ki values; read-out: binding affinities (mGluR1 assay)
Method: The ability of compounds of formula (I) to antagonise glutamate-evoked increases in calcium internalisation in an mGluR1 expressing cell line may be measured using the assay described below.
Chinese Hamster Ovary cells stably-transfected with the rat mGluR1a receptor (CHO-1a) were used in the assay. CHO-1a cells were seeded onto shallow 96 well plates and assayed at a confluency of 80-90%. Cells were loaded with Fluo-3-AM dye (8.8 μM final concentration; excitation 488 nm, emission 530 nm) in the presence of probenecid (2.5 mM), for 45-90 minutes at 37° C., after which time excess dye was removed by washing. The cell plate was then loaded onto a fluorometric imaging plate reader (FLIPr, Molecular Devices). Baseline readings were measured for 30 seconds. Test compounds were added by the FLIPr and allowed to equilibrate for 5 minutes before the addition of a 40 μM glutamate challenge (this was the approximate ED90 for glutamate against the receptor expressed in these cells). Readings were taken for a further 2 minutes. Measurements were made of the area of peak obtained in response to the glutamate addition and inhibition curves were constructed. Glutamate dose-response curves were included on each experimental day to allow IC50 values to be converted to modified Ki values.

T1 sequence (P23385 19-1199): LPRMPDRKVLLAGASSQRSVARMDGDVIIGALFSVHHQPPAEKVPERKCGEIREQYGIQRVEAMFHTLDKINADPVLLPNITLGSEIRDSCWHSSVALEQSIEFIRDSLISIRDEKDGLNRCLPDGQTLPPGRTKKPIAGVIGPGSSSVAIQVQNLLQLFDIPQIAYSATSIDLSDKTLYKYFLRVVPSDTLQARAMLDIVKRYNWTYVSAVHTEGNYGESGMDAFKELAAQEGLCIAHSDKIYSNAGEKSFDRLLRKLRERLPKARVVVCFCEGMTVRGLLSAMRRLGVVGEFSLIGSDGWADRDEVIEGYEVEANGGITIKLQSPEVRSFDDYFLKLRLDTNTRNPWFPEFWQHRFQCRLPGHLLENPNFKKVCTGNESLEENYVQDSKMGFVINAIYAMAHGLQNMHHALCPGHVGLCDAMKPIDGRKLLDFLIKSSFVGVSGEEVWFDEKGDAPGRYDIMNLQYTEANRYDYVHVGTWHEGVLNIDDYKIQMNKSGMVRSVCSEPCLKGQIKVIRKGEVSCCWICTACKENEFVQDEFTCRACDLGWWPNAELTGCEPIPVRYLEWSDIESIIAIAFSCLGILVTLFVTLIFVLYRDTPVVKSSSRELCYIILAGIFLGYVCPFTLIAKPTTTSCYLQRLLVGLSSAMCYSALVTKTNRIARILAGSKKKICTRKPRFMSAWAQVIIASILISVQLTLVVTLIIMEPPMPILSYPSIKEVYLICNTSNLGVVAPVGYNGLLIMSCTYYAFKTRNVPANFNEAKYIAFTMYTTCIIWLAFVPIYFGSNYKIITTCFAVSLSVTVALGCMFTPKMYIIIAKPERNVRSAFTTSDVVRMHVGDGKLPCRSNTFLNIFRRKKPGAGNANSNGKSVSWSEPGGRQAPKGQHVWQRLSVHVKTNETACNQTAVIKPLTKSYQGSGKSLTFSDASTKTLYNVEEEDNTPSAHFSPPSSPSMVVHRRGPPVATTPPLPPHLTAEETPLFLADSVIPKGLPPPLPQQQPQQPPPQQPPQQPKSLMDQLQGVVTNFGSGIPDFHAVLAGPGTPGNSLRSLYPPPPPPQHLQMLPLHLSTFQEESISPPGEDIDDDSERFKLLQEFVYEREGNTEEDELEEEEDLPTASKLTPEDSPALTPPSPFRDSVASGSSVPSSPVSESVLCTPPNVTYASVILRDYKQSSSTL

Structure (SMILES)	Ki [nM]
OC1CCN(c2cc3c(NC4CCCCCC4)ncnc3cn2)CC1 [Example 1, 1-(4-Cycloheptylamino-pyrido[3,4-d]pyrimidin-6-yl)-piperidin-4-ol]	3
OCCCNc1cc2c(NC3CCCCCC3)ncnc2cn1 [Example 3]	2
